According to PubChem BioAssay (NCI):
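A five-concentration, 48-hour dose response in 96-well plates underlies each endpoint, interpolated linearly between surrounding concentrations. GI50: concentration for 50% inhibition of growth. TGI: concentration producing complete growth inhibition.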

Experiments:
Experiment in all cases: inhibition of tumour cell growth, NCI panel, 48 h
HCT-15 colon = system: HCT-15 colon
KM12 colon = system: KM12 colon
MDA-MB-231 breast = system: MDA-MB-231 breast
MOLT-4 leukemia = system: MOLT-4 leukemia
OVCAR-8 ovarian = system: OVCAR-8 ovarian
SN12C renal = system: SN12C renal
UACC-62 melanoma = system: UACC-62 melanoma
NCI-H460 lung = system: NCI-H460 lung
HS 578T breast = system: HS 578T breast
MCF7 breast = system: MCF7 breast

Compound | GI50 (HCT-15 colon) | TGI (HCT-15 colon) | GI50 (KM12 colon) | TGI (KM12 colon) | GI50 (MDA-MB-231 breast) | TGI (MDA-MB-231 breast) | GI50 (MOLT-4 leukemia) | TGI (MOLT-4 leukemia) | GI50 (OVCAR-8 ovarian) | TGI (OVCAR-8 ovarian) | GI50 (SN12C renal) | TGI (SN12C renal) | GI50 (UACC-62 melanoma) | TGI (UACC-62 melanoma) | TGI (NCI-H460 lung) | GI50 (HS 578T breast) | TGI (HS 578T breast) | GI50 (MCF7 breast) | TGI (MCF7 breast) | GI50 (NCI-H460 lung)
OC(c1cc(-c2cccc(Cl)c2)nc2ccccc12)C1CCCCN1 (configuration not stated) | 1.91 µM | 3.91 µM | 1.79 µM | 3.2 µM | 1.66 µM | 3.37 µM | 1.6 µM | 4.14 µM | 1.79 µM | 3.42 µM | 2.17 µM | 5.19 µM | 1.93 µM | 3.58 µM |  |  |  |  |  | 
COc1ccc2c(c1)[n+]([O-])c(-c1ccc([N+](=O)[O-])cc1)c(N)[n+]2[O-] |  |  |  | > 100 µM |  |  |  | > 100 µM |  | > 100 µM |  | > 100 µM |  |  | > 100 µM |  |  |  |  | 
CC(=O)Nc1ccc(/C=c2\sc3nnc(CCC(=O)Nc4ccccc4Cl)n3c2=O)cc1 |  | > 100 µM |  | 46.4 µM |  |  |  | 44.7 µM |  | > 10 µM |  | > 100 µM |  | 56.2 µM | > 10 µM |  |  |  |  | 
Cc1cc(Cl)cc2c(N=Nc3ccc(S(N)(=O)=O)cc3)c(O)[nH]c12 | > 25 µM | > 25 µM | > 25 µM | > 25 µM | > 25 µM | > 25 µM | > 25 µM | > 25 µM | > 25 µM | > 25 µM | > 25 µM | > 25 µM | > 25 µM | > 25 µM | > 25 µM | > 25 µM | > 25 µM | > 25 µM | > 25 µM | > 25 µM
Cc1ccc(S(=O)(=O)c2ccc(NC(=O)SCCC(=O)O)cc2)cc1 |  | > 100 µM |  | > 100 µM |  |  |  | > 100 µM |  | > 100 µM |  | > 100 µM |  | > 100 µM | > 100 µM |  |  |  |  | 
COC(=O)C(Cc1nc2ccccc2[nH]c1=O)/C(=N\NC(C)(C)C)C(=O)Nc1c(C)cc(Br)cc1C (configuration not stated) |  | 48.2 µM |  | > 100 µM |  |  |  | 28.7 µM |  | 54.2 µM |  | > 100 µM |  | 44.9 µM | > 100 µM |  |  |  |  | 
Cn1cc(C2=C(c3ccccc3[N+](=O)[O-])C(=O)NC2=O)c2ccccc21 | 5.16 µM | > 25 µM | 3.25 µM | 13.3 µM | 4.72 µM | 19.6 µM |  |  | 6.07 µM | > 25 µM | 4.98 µM | > 25 µM | 3.68 µM | 12.1 µM | > 25 µM | 0.975 µM | > 16.9 µM | 4.05 µM | > 25 µM | 4.85 µM
C=CCC(N[C@@H](CO)c1ccccc1)c1cn(Cc2ccccc2Cl)c(=O)n(Cc2ccccc2Cl)c1=O (some centres not stated) | > 100 µM | > 100 µM | > 100 µM | > 100 µM | 78 µM | > 100 µM |  |  | > 100 µM | > 100 µM | > 100 µM | > 100 µM | 82.2 µM | > 100 µM | > 100 µM | > 100 µM | > 100 µM | > 100 µM | > 100 µM | > 100 µM
COc1ccccc1NC(=O)C1=C(C)NC(C)=C(C(=O)Nc2ccccc2OC)C1C1=CC=COC1 |  | 15 µM |  | 49.6 µM |  |  |  | > 100 µM |  | 40.4 µM |  | > 100 µM |  | 15.5 µM | 16.3 µM |  |  |  |  | 
COC1=CC(c2ccc[nH]2)=N/C1=C\c1[nH]c(C)c(CC(=O)OCc2ccccc2)c1CCC(=O)OCc1ccccc1 | 0.313 µM | 1.18 µM | 0.367 µM | 2.26 µM | 0.224 µM | 1.67 µM | 0.309 µM | 2.01 µM | 0.32 µM | 1.36 µM |  |  |  |  | 13.1 µM | 0.395 µM | 2.87 µM | 0.372 µM | 5.5 µM | 0.399 µM
CCOC(=O)C1SC(=Nc2cccc(Cl)c2C)N=C1C (configuration not stated) |  | > 10 µM |  | 77.7 µM |  |  |  | 78.8 µM |  | 61.9 µM |  | 35.6 µM |  |  | > 100 µM |  |  |  |  | 
NC1=CC(=O)c2cccnc2C1=O | 1.76 µM | 10.2 µM | 3.28 µM | 13.1 µM | 1.9 µM | 4.78 µM | 1.01 µM | 3.45 µM | 1.66 µM | 4.2 µM | 1.49 µM | 2.94 µM | 1.47 µM | 2.87 µM | 3.25 µM | 2.28 µM | 8.17 µM |  |  | 1.23 µM
CN1C(=O)CCC2[C@@H]3CC=C4C[C@@H](O)CC[C@]4(C)C3CC[C@@]21C (some centres not stated) |  | > 100 µM |  | > 100 µM |  |  |  | 69.6 µM |  | > 100 µM |  |  |  | > 100 µM | > 100 µM |  |  |  |  | 
COc1c(O)c(OC)c2oc(-c3ccc(O)c(O)c3)c(OC)c(=O)c2c1O |  | > 100 µM |  | > 100 µM |  | > 100 µM |  | > 100 µM |  | > 100 µM |  | > 100 µM |  | 47.8 µM | > 100 µM |  |  |  | 34 µM | 
c1ccc([CH2][Sn]([CH2]c2ccccc2)([O]c2cccc3cccnc23)[O]c2cccc3cccnc23)cc1 | 0.394 µM | 1.37 µM | 0.223 µM | 0.515 µM |  |  |  |  | 0.515 µM | 1.59 µM | 0.603 µM | 2.1 µM | 0.178 µM | 0.447 µM | 0.446 µM |  |  |  |  | 0.207 µM
CCN(CC)CC(C)(C)C(=O)/C=C/c1cccc(/C=C/C(=O)C(C)(C)CN(CC)CC)c1 |  | 2.37 µM |  | 1.77 µM |  |  |  | 0.901 µM |  | 1.47 µM |  | 1.04 µM |  | 3.16 µM | 2.31 µM |  |  |  |  | 
O=S(=O)([O-])c1ccc(N=Cc2ccccc2[O-])cc1.O=S(=O)([O-])c1ccc(N=Cc2ccccc2[O-])cc1.[O]=[U+2]=[O] | 31.3 µM | > 100 µM |  |  |  |  | 64.1 µM | > 100 µM | > 100 µM | > 100 µM | > 100 µM | > 100 µM | > 100 µM | > 100 µM | > 100 µM |  |  |  |  | > 100 µM
O=C(/C=C/c1ccco1)c1cc(F)c(Cl)cc1Cl | 21.5 µM | 55.8 µM | 19.7 µM | 56.4 µM | 21.9 µM | 58 µM |  |  | 24.5 µM | 68.3 µM | 22.9 µM | 57.5 µM | 16.5 µM | 34.6 µM | 72.4 µM | 13.7 µM | 39.6 µM | 14.1 µM | 63 µM | 24.2 µM
